Test [1] relates to wild-type Saccharomyces cerevisiae CEN.PK113-7D yeast strain. Description: Chronological lifespan analysis in yeast (PI, outgrowth, spotting). It is filed as cell-based. As for the experimental part:
(§1) Yeast strain was recovered from frozen glycerol stock at 30° C. on YPD agar medium. Yeast was left to propagate in SD medium overnight at 30° C. with shaking at 220 revolutions per minute (rpm). Cells propagated overnight were diluted to a starting optical density at 600 nm (OD600) of approximately 0.2 in fresh SD medium to begin the chronological lifespan (CLS) experiments.
CLS experiments were performed in 96-well plates with 200 μL yeast culture. Cellular inoculums were transferred into 96-well plates containing serially double-diluted concentrations (0 to 10 nM) of rapamycin. […] Cells were incubated at 30° C., and the growth was measured at different time points. The growth time point 72 hours was considered as Day 1 for the CLS assay. Cell survival was quantified at various age time points by three different approaches: (i) PI fluorescence-based method, (ii) outgrowth in YPD liquid medium, and (iii) spotting assay (FIG. 1).
Yeast cells (40 μL) from different age time points were transferred into a second 96-well plate (different to the 96-well plate in which the CLS analysis as outlined above was performed). Cells were washed and incubated in 100 μL 1×phosphate buffered saline (PBS) with propidium iodide (PI) (5 μg/mL) for 15 minutes in the dark. Positive and negative control samples were included for quantitative analysis. Positive control (cells boiled at 100° C. for 15 minutes) was PI-stained and processed in the same 96-well plate. Samples without PI-stained cells served as the negative control. After incubation, cells were washed and resuspended in 100 μL PBS. The fluorescence reading of the samples (excitation and emission wavelengths at 535 nm and 617 nm, respectively) and OD600 were measured with a microplate reader (BioTek, Winooski, Vermont, United States). The fluorescence intensity of each sample was normalized with OD600. The background fluorescence signal of the unstained negative sample was subtracted from the normalized fluorescence intensity of each sample. The obtained fluorescence intensity of the positive control (boiled dead cells) was considered 0% cell survival. Cell death was validated by allowing the boiled dead cells to grow in medium. Cell survival at different age time points of samples were calculated by normalizing the fluorescence intensity with positive control sample (boiled cells).
Yeast stationary culture (3 μL) of different age time points were transferred to a second 96-well plate, containing 200 μL YPD medium, and incubated for 24 hours at 30° C. Outgrowth (OD600) of aged cells was measured by the microplate reader. Quantification of cell survival for each age point was determined as relative to Day 1 (considered 100% cell survival). This quantification was performed by using the formula,
Yeast stationary culture (3 μL) of different age time points were spotted onto a YPD agar plate and incubated for 48 hours at 30° C. The outgrowth of aged cells on the YPD agar plate was photographed using the Bio-Rad GelDoc Imaging System (Bio-Rad, Hercules, California, United States).

For test [2] the test system is unchanged. Description: Yeast cell growth (OD600) in SD medium. Type of test: cell-based. The settings on record: 0 to 8 mM; 24, 48 and 72 hours. How it is done: as §1
CLS experiments were performed in 96-well plates with 200 μL yeast culture. Cellular inoculums were transferred into 96-well plates containing serially double-diluted concentrations (0 to 10 nM) of rapamycin. Cellular inoculum was transferred into 96-well plates containing serially double-diluted concentrations (0 to 8 mM) of 2,5-anhydro-D-mannitol, D-fructose, D-mannitol, D-maltose, and D-sorbitol in SD medium. Cells were incubated at 30° C., and the growth was measured at different time points. The growth time point 72 hours was considered as Day 1 for the CLS assay. Cell survival was quantified at various age time points by three different approaches: (i) PI fluorescence-based method, (ii) outgrowth in YPD liquid medium, and (iii) spotting assay (FIG. 1).
Firstly, the effect of 2,5-AM on cell growth was determined. Yeast cells were incubated with varying concentrations of 2,5-AM in the SD medium. Cell growth was measured at different time points (24 hours, 48 hours, and 72 hours). […] Then, the survival of chronologically aged cells supplemented with different concentrations of 2,5-AM was measured using the PI fluorescence method. At each chronological age point, a 3 μL culture was transferred to a second 96-well plate containing 200 μL YPD medium. The 72-hour growth culture was considered Day 1 for the CLS analysis. The viability fraction was calculated, and a survival graph was plotted for different chronological age time points (FIG. 5). […] The survival of aged cells supplemented with 2,5-AM (4 mM and 8 mM) on Day 4 was approximately 80%. However, the survival of aged cells without 2,5-AM was approximately 50%. On Day 7, survival of 2,5-AM supplemented aged cells was approximately 75%. However, the survival of aged cells without 2,5-AM was reduced to less than 20%.
Firstly, the effect of fructose, mannitol, maltose, and sorbitol on cell growth was tested. Yeast cells were incubated with various concentrations of fructose, mannitol, maltose, and sorbitol similar to 2,5-AM in the SD medium. […] Next, the survival of chronologically aged cells on day 1, day 7, day 14, and day 21 was measured. […] Aged cells supplemented with 2,5-AM (8 mM) survived (approximately 65%) on Day 21. However, the survival of aged cells without 2,5-AM supplementation was less than 10%.

Test [3] has the same test system. To be noted: very high concentrations (18% equivalent to 1M); by increasing osmolarity; cited from earlier work.
Test [4] concerns human cells. Briefly: High-throughput chemical screening using the PI method in human cells. To be noted: Day 6; library tested at 1 μM; controls ranged from 4.22 to 4.53; lower = extended CLS. It is filed as cell-based. As for the experimental part:
The stock solution of rapamycin, hemin, 5-fluorouracil, atorvastatin, and methotrexate was prepared in DMSO, followed by serial dilution to form various concentrations used in the experiment. The final DMSO concentration was kept at 0.05% in all experiments. The stock solution of 2,5-anhydro-D-mannitol was prepared in D10 medium. The chemical library used in screening were tested at 1 μM concentrations. Controls used were the same as the solvent applied, DMSO or water.
The assay was performed by preparing the cells with PI (2 μg/mL or 5 μg/mL) in a D10 medium. 200 μL culture (8×10^4 cells) was seeded per well in a 96-well plate with different concentrations of the anti-aging drug (rapamycin, 2,5-AM, plicamycin, copanlisib dihydrochloride, nedaplatin, hemin, 5-fluorouracil, methotrexate, or atorvastatin) and no treatment control (DMSO). The culture plate was kept away from light throughout the experiment and incubated at 37° C. with 5% CO2. At different age time points, reading was taken with a Synergy MX microplate reader (BioTek, Winooski, Vermont, United States) at 535 nm excitation and 617 nm emission.
The PI method was used to identify additional novel anti-aging compounds that prolong CLS. A total of 162 compounds were screened, including some FDA-approved drugs and natural products. The log10 values of the PI intensity for the various control samples ranged from 4.22 to 4.53.

[5] abbreviates: 0 to 8 mM in SD medium, up to day 21.

Entries after “also recorded” stand apart in the source; their conditions may differ.

Turning to `O=C(CO)[C@@H](O)[C@H](O)[C@H](O)CO` [fructose, D-fructose], the “effect on yeast CLS” value in test [1] (setting [5]) is given as “did not extend the lifespan of the yeast”. Besides, the cell growth entry in test [2] is “reached growth saturation after 24 hours”.

Take `OC[C@H]1O[C@H](O[C@H]2[C@H](O)[C@@H](O)[C@H](O)O[C@@H]2CO)[C@H](O)[C@@H](O)[C@@H]1O` [maltose, D-maltose]: the “effect on yeast CLS” value in test [1] (setting [5]) is “did not extend the lifespan of the yeast”. In addition, in test [2], the cell growth result is reported as “reached growth saturation after 24 hours”.

On to `OC[C@@H](O)[C@@H](O)[C@H](O)[C@H](O)CO` [mannitol, D-mannitol], for which the “effect on yeast CLS” value in test [1] (setting [5]) is recorded as “did not extend the lifespan of the yeast”. In addition, the cell growth result in test [2] is on record as “reached growth saturation after 24 hours”.

`OC[C@@H](O)[C@@H](O)[C@H](O)[C@@H](O)CO` [sorbitol, D-sorbitol]: the “effect on yeast CLS” value in test [1] (setting [5]) is “did not extend the lifespan of the yeast; also recorded: unable to increase the CLS”; in test [1] (very high concentrations, between 0.5 and 1 M) it was “increased the CLS of yeast”. For the same compound, the cell growth entry in test [2] is “reached growth saturation after 24 hours”. The “effect on yeast CLS (known)” value in test [3] is “increase the CLS of yeast cells”.

copanlisib dihydrochloride: in test [4], the “log10 PI intensity” value came out at 3.59.

With plicamycin, the “log10 PI intensity” value in test [4] was determined as 3.91.

Source of the values: patent US20250161338A1, “Compounds for Anti-aging Intervention” (AGENCY FOR SCIENCE, TECHNOLOGY AND RESEARCH, priority 2022, published 2025).
